# Measured values taken from patent publication US9023876B2, “Compounds and methods for regulating integrins” (Adhaere Pharmaceuticals, Inc., priority 2010, dated 2015).
# What was measured:
# [1] = biological target: T1, mutant integrin CD11bE320A/CD18 (Homo sapiens, UniProt P11215, E336A); assay: Adhesion of K562 E320A cells to immobilized Fg; format: cell-based
# T1 construct: expressed in transfected cells; host or cells: K562
# Description: K562 cells (ATCC) stably transfected with wild-type integrin CD11b/CD18 (K562 CD11b/CD18) have been described previously. Mutant CD11bE320A has been described previously. K562 cells stably transfected with mutant integrin CD11bE320A/CD18 (K562 E320A) were generated according to literature protocols. All cell lines were maintained in Iscove's Modified Dulbecco's Medium (IMDM) supplemented with 10% heat-inactivated fetal bovine serum, 50 IU/ml penicillin and streptomycin and 0.5 mg/ml G418.
# Cell adhesion assays with immobilized ligands were performed as previously described. Assays with all different K562 cell lines (K562, K562 CD11b/CD18 and K562 E320A) were performed in an identical fashion. Briefly, 384-well Highbind microtiter plates were coated with a 30 μL solution of ligand in Phosphate Buffered Saline, pH 7.4 containing 1 mM each of Ca^2+ and Mg^2+ ions (PBS^++) overnight at 4° C. Ligand Fg was coated at a concentration of […] and iC3b at […]. Heterodimer specific mAb IB4 (ascites) was coated at a 1:100 dilution. […] Cells remaining adherent were fixed using formaldehyde and were quantitated using imaging microscopy, as previously described. […]
# [2] = biological target: T2, integrin CD11b/CD18 (Homo sapiens, UniProt P11215); assay: K562 CD11b/CD18 cell adhesion to immobilized iC3b; format: cell-based; conditions: increasing amounts of compound
# T2 construct: expressed in transfected cells; host or cells: K562
# Description: Cell adhesion assays with immobilized ligands were performed as previously described. Assays with all different K562 cell lines (K562, K562 CD11b/CD18 and K562 E320A) were performed in an identical fashion. Briefly, 384-well Highbind microtiter plates were coated with a 30 μL solution of ligand in Phosphate Buffered Saline, pH 7.4 containing 1 mM each of Ca^2+ and Mg^2+ ions (PBS^++) overnight at 4° C. Ligand Fg was coated at a concentration of […] and iC3b at […]. Heterodimer specific mAb IB4 (ascites) was coated at a 1:100 dilution. Subsequently, the non-specific sites in the wells were blocked by incubation with 1% non-fat milk in Tris Buffered Saline (TBS), pH 7.4, at room temperature for 1 h, except for the neutrophil assay, where the wells were blocked with TBS containing 1% gelatin. Next, the wells were washed three times with TBS. K562 cells were suspended in the assay buffer (TBS containing 1 mM each of Ca^2+ and Mg^2+ ions (TBS^++)) and were transferred to the ligand-coated wells (30,000 cells/well). Stock solution of the leukadherin family of small molecule agonists was prepared by dissolving the compounds in DMSO at a concentration of 2-10 mM. Final concentration of DMSO in the assay was approximately 1%. […] Cells remaining adherent were fixed using formaldehyde and were quantitated using imaging microscopy, as previously described. […]
# [3] = test system: murine neutrophils; assay: Neutrophil chemotaxis assay in Zigmond chamber, fMLP gradient; format: cell-based, mouse; conditions: vs DMSO
# Description: Neutrophil chemotaxis on 2D surfaces was performed using Zigmond chamber (Neuro Probe) as described on acid cleaned glass or Fg coated glass coverslips. Cell migration was allowed in a gradient of […] bacterial peptide formyl-methionyl-leucyl-phenylalanine (fMLP, Sigma), in the absence or presence of leukadherins ([…]). Cell migration was recorded at every 30 sec interval for a period of 25 min using a Nikon Eclipse 90i inverted microscope. Images were acquired with a Nikon DS camera using a PLAN APO 20X differential interference contrast (DIC) microscopy objective and captured into Nikon Imaging software. Analysis of neutrophil migration was performed with the motile population that had moved more than 10 μm using ImageJ software (NIH, USA) with manual cell tracking using the Ibidi chemotaxis and migration tool plugin for ImageJ. Migration velocity and the total displacement (distance from origin) were also analyzed. Quantitation was performed using at least 50 independent cells per condition from at least three independent experiments.
# Leukocyte chemotaxis on 2D surfaces involves integrin-mediated sequential adhesion and de-adhesion steps [77]. […] To test if increased cell-adhesion by leukaderins affects cell migration, we used murine neutrophils chemotaxing in response to a gradient of chemokine peptide formyl-Met-Leu-Phe (fMLP). […]
# [4] = test system: WT B6 mice; assay: Thioglycollate-induced peritonitis, WT mice; format: in vivo, mouse; conditions: vs vehicle
# Description: Thioglycollate-induced peritonitis was performed as previously described, using 8-10 week old WT B6 and CD11b^−/− B6 mice. Leukadherin agonists were administered thirty min prior to intra peritoneal (i.p.) thioglycollate (3%) injection. LA1 and LA2 ([…] of 20 mM solution in saline) were administered intra venously (i.v.). LA3 was administered i.p. (1 mL of 20 mM solution in saline). To evaluate peritoneal neutrophil recruitment, […], the peritoneal lavage was collected and the number of emigrated neutrophils was quantified using double positive cells for GR-1 and Mac-1 staining as described.
# To determine the effects of LA1-3 on inflammatory responses in vivo, we monitored their effects on neutrophil recruitment upon acute thioglycollate-induced peritonitis in mice.
# [5] = test system: B6 male mice; assay: Renal I/R injury in mice; format: in vivo, mouse; conditions: given 30 min prior to I/R injury, 24 h post-ischemia, vs DMSO; not shown
# Description: Leukadherins reduce renal I/R injury. To evaluate use of leukadherins in the I/R injury induced changes in the kidney function of WT mice, we performed another experiment. B6 male mice (8-12 weeks of age) were anesthetized and kept on a heating pad to keep them at a constant 37° C. temperature. Next, an abdominal incision was made and the renal pedicles were occluded bilaterally with a nontraumatic vascular clamp for 30 minutes, the clamp then removed and the surgical incision was closed. Sham surgery was performed with an identical procedure but without application of the clamps. Renal I/R injury was assessed at 24 h post-ischemia by measuring the serum creatinine levels. Mouse sera from the tail incision was used for the analyses of sCr (and BUN levels (not shown)) using manual kits (Stanbio Laboratory).
structure (smiles),measurement,setting,value
O=C(O)c1ccc(-c2ccc(/C=C3\SC(=S)N(Cc4ccccc4)C3=O)o2)cc1 [LA1],binding of K562 E320A to Fg,[1],selectively increased
same,K562 CD11b/CD18 cells adhering to immobilized iC3b,[2],increase binding of CD11b/CD18 to iC3b in a dose-dependent fashion
same,lateral migration of neutrophils,[3],significant decrease
same,migration velocity of neutrophils,[3],significant decrease
same,peritoneal neutrophil accumulation at 4 h and 12 h,[4]; TGC-induced peritonitis,significantly reduced
same,peritoneal neutrophils after 24 h,[4]; TGC-induced peritonitis,comparable numbers
same,reduction of peritoneal neutrophil accumulation,"[4]; WT mice, given 30 min prior to thioglycollate, 4 h",40%
same,serum creatinine (sCr) levels,[5],significant reduction
